{
  "source": "patent US8946230B2",
  "about": "“Aryl- and heteroaryl- nitrogen-heterocyclic compounds as PDE10 inhibitors” (Amgen Inc., priority 2010, dated 2015)",
  "data": [
    {"biological_target": "T1, PDE10 (UniProt Q8CA95)", "T1 sequence (Q8CA95 1-790)": "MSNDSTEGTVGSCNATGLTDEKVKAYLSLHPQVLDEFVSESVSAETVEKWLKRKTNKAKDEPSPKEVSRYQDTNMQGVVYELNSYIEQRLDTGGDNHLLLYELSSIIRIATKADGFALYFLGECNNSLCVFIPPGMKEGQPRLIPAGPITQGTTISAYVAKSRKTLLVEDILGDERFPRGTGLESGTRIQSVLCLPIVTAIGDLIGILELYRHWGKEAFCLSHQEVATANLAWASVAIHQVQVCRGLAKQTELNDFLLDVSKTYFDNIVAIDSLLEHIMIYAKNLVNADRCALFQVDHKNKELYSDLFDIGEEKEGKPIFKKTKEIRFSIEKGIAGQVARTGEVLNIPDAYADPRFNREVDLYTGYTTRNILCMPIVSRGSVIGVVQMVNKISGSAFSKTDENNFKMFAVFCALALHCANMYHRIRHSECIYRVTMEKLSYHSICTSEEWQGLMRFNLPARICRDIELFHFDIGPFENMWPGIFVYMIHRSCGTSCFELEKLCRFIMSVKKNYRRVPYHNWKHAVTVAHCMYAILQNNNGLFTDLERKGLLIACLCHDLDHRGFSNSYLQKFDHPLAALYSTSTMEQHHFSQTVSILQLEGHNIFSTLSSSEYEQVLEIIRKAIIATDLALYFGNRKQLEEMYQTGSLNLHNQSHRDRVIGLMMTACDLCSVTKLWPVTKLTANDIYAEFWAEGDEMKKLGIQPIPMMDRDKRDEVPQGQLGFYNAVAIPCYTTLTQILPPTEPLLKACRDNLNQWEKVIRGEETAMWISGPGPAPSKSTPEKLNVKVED", "assay": "PDE10 enzyme inhibition, IMAP TR-FRET assay (Example A: MPDE10A7 Enzyme Activity and Inhibition)", "type": "biochemical", "settings": "Table 1A, Examples 11-56; read-out: PDE10 IC50", "experimental": "(§1) MPDE10A7 Enzyme Activity and Inhibition Enzyme Activity. An IMAP TR-FRET assay was used to analyze the enzyme activity (Molecular Devices Corp., Sunnyvale Calif.). 5 μL of serial diluted PDE10A (BPS Bioscience, San Diego, Calif.) or tissue homogenate was incubated with equal volumes of diluted fluorescein labeled cAMP or cGMP for 60 min in 384-well polystyrene assay plates (Corning, Corning, N.Y.) at room temperature. After incubation, the reaction was stopped by adding 60 μL of diluted binding reagents and was incubated for 3 hours to overnight at room temperature. The plates were read on an Envision (Perkin Elmer, Waltham, Mass.) for time resolved fluorescence resonance energy transfer. The data were analyzed with GraphPad Prism (La Jolla, Calif.). Enzyme Inhibition. To check the inhibition profile, 5 μL of serial diluted compounds were incubated with 5 μL of diluted PDE10 enzyme (BPS Bioscience, San Diego, Calif.) or tissue homogenate in a 384-well polystyrene assay plate (Corning, Corning, N.Y.) for 30 min at room temperature. After incubation, 10 μL of diluted fluorescein labeled cAMP or cGMP substrate were added and incubated for 60 min at room temperature. The reaction was stopped by adding 60 μL of diluted binding reagents and plates were read on an Envision (Perkin Elmer, Waltham, Mass.) for time resolved fluorescence resonance energy transfer. The data were analyzed with GraphPad Prism (La Jolla, Calif.).", "units": {"IC50": "nM"}, "values": [
      {"smiles": "N#Cc1ccc2[nH]c(C3CCN(c4nccnc4N4CCOCC4)C3)nc2c1", "note": "(centres unmarked) [Example 12, 2-[1-(3-Morpholin-4-yl-pyrazin-2-yl)-pyrrolidin-3-yl]-1H-benzoimidazole-5-carbonitrile]", "IC50": 535},
      {"smiles": "COc1ccccc1-c1nccnc1N1CC(c2nc3cc(Cl)ccc3[nH]2)C1", "note": "[Example 27, 5-chloro-2-{1-[3-(2-methoxy-phenyl)-pyrazin-2-yl]-azetidin-3-yl}-1H-benzoimidazole]", "IC50": 4330},
      {"smiles": "Clc1ccc2[nH]c(C3CN(c4nccnc4-c4cccnc4)C3)nc2c1", "note": "[Example 33, 5-chloro-2-[1-(3-pyridin-3-yl-pyrazin-2-yl)-azetidin-3-yl]-1H-benzoimidazole]", "IC50": 538},
      {"smiles": "Cc1ccc(-c2nccnc2N2CC(c3nc4cc(Cl)ccc4[nH]3)C2)cc1", "note": "[Example 26, 5-chloro-2-[1-(3-p-tolyl-pyrazin-2-yl)-azetidin-3-yl]-1H-benzoimidazole]", "IC50": 134},
      {"smiles": "CN(C)C(=O)c1nccnc1N1CC(c2nc3cc(Cl)ccc3[nH]2)C1", "note": "[Example 35, 3-[3-(5-chloro-1H-benzoimidazol-2-yl)-azetidin-1-yl]-pyrazine-2-carboxylic acid dimethylamide]", "IC50": 10000},
      {"smiles": "CN(c1ccccc1)c1nccnc1N1CC(c2nc3cc(Cl)ccc3[nH]2)C1", "note": "[Example 41, 3-(3-(5-chloro-1H-benzo[d]imidazol-2-yl)azetidin-1-yl)-N-methyl-N-phenylpyrazin-2-amine]", "IC50": 74},
      {"smiles": "Cc1ccc2[nH]c(C3CN(c4ncccc4Cl)C3)nc2c1", "note": "[Example 47, 2-(1-(3-chloropyridin-2-yl)azetidin-3-yl)-5-methyl-1H-benzo[d]imidazole]", "IC50": 3840},
      {"smiles": "Clc1ccc2[nH]c(C3CN(c4nccnc4C4=CCOCC4)C3)nc2c1", "note": "[Example 51, 5-chloro-2-(1-(3-(3,6-dihydro-2H-pyran-4-yl)pyrazin-2-yl)azetidin-3-yl)-1H-benzo[d]imidazole]", "IC50": 442},
      {"smiles": "c1ccc(-c2nccnc2N2CCC(c3nc4cc(C5CC5)ccc4[nH]3)CC2)cc1", "note": "[Example 13, 5-Cyclopropyl-2-[1-(3-phenyl-pyrazin-2-yl)-piperidin-4-yl]-1H-benzoimidazole]", "IC50": 277},
      {"smiles": "N#Cc1ccc2[nH]c(C3CCN(c4ncccc4Cl)C3)nc2c1", "note": "(centres unmarked) [Example 11, 2-[1-(3-chloro-pyridin-2-yl)-pyrrolidin-3-yl]-1H-benzoimidazole-5-carbonitrile]", "IC50": 310},
      {"smiles": "Cc1ccc2[nH]c(C3CN(c4nccnc4-c4ccccc4)C3)nc2c1", "note": "[Example 39, 5-methyl-2-(1-(3-phenylpyrazin-2-yl)azetidin-3-yl)-1H-benzo[d]imidazole]", "IC50": 39.8},
      {"smiles": "O=C(c1cccnc1N1CC(c2nc3cc(Cl)ccc3[nH]2)C1)N1CCOCC1", "note": "[Example 17, {2-[3-(5-chloro-1H-benzoimidazol-2-yl)-azetidin-1-yl]-pyridin-3-yl}-morpholin-4-yl-methanone]", "IC50": 32900},
      {"smiles": "COc1nccnc1N1CC(c2nc3cc(Cl)ccc3[nH]2)C1", "note": "[Example 45, 5-chloro-2-(1-(3-methoxypyrazin-2-yl)azetidin-3-yl)-1H-benzo[d]imidazole]", "IC50": 499},
      {"smiles": "O=C(NCC1CCOCC1)c1cccnc1N1CC(c2nc3cc(Cl)ccc3[nH]2)C1", "note": "[Example 23, 2-[3-(5-chloro-1H-benzoimidazol-2-yl)-azetidin-1-yl]-N-(tetrahydro-pyran-4-ylmethyl)-nicotinamide]", "IC50": 37600},
      {"smiles": "N#Cc1ccc2[nH]c(C3CCN(c4nccnc4-c4ccccc4)C3)nc2c1", "note": "(centres unmarked) [Example 15, 2-[1-(3-phenyl-pyrazin-2-yl)-pyrrolidin-3-yl]-1H-benzoimidazole-5-carbonitrile]", "IC50": 461},
      {"smiles": "CN1CCN(c2nccnc2N2CC(c3nc4cc(Cl)ccc4[nH]3)C2)CC1", "note": "[Example 43, 5-chloro-2-(1-(3-(4-methylpiperazin-1-yl)pyrazin-2-yl)azetidin-3-yl)-1H-benzo[d]imidazole]", "IC50": 305},
      {"smiles": "Clc1ccc2[nH]c(C3CN(c4nccnc4Oc4ccccc4)C3)nc2c1", "note": "[Example 42, 5-chloro-2-(1-(3-phenoxypyrazin-2-yl)azetidin-3-yl)-1H-benzo[d]imidazole]", "IC50": 80.9},
      {"smiles": "Clc1ccc2[nH]c(C3CN(c4ncccc4Cl)C3)nc2c1", "note": "[Example 54, 5-chloro-2-(1-(3-chloropyridin-2-yl)azetidin-3-yl)-1H-benzo[d]imidazole]", "IC50": 7.81},
      {"smiles": "Cc1ccccc1-c1nccnc1N1CC(c2nc3cc(Cl)ccc3[nH]2)C1", "note": "[Example 24, 5-chloro-2-[1-(3-o-tolyl-pyrazin-2-yl)-azetidin-3-yl]-1H-benzoimidazole]", "IC50": 80.6},
      {"smiles": "Cc1ccc2[nH]c(C3CN(c4nccnc4Cl)C3)nc2c1", "note": "[Example 48, 2-(1-(3-chloropyrazin-2-yl)azetidin-3-yl)-5-methyl-1H-benzo[d]imidazole]", "IC50": 456},
      {"smiles": "Clc1cccc(-c2nccnc2N2CC(c3nc4cc(Cl)ccc4[nH]3)C2)c1", "note": "[Example 31, 5-chloro-2-{1-[3-(3-chloro-phenyl)-pyrazin-2-yl]-azetidin-3-yl}-1H-benzoimidazole]", "IC50": 119},
      {"smiles": "O=C(NCc1ccccc1)c1cccnc1N1CC(c2nc3cc(Cl)ccc3[nH]2)C1", "note": "[Example 19, N-Benzyl-2-[3-(5-chloro-1H-benzoimidazol-2-yl)-azetidin-1-yl]-nicotinamide]", "IC50": 4650},
      {"smiles": "Clc1ccc2[nH]c(C3CN(c4nccnc4Nc4ccccc4)C3)nc2c1", "note": "[Example 40, 3-(3-(5-chloro-1H-benzo[d]imidazol-2-yl)azetidin-1-yl)-N-phenylpyrazin-2-amine]", "IC50": 630},
      {"smiles": "CC(C)NC(=O)c1cccnc1N1CC(c2nc3cc(Cl)ccc3[nH]2)C1", "note": "[Example 21, 2-[3-(5-chloro-1H-benzoimidazol-2-yl)-azetidin-1-yl]-N-isopropyl-nicotinamide]", "IC50": 4780}
    ]},
    {"biological_target": "T1, PDE10", "assay": "PDE10 enzyme inhibition, IMAP TR-FRET assay (Example A: MPDE10A7 Enzyme Activity and Inhibition)", "type": "biochemical", "settings": "Table 2A, Examples 61-64; read-out: IC50", "experimental": "as §1", "units": {"IC50": "nM"}, "values": [
      {"smiles": "COc1cccc(-c2nccnc2N2CC(c3ccc4ccccc4n3)C2)c1", "note": "[Example 64, 2-{1-[3-(3-Methoxy-phenyl)-pyrazin-2-yl]-azetidin-3-yl}-quinoline]", "IC50": 17.5},
      {"smiles": "OCC1CCN(c2nccnc2N2CC(c3ccc4ccccc4n3)C2)CC1", "note": "[Example 62, {1-[3-(3-Quinolin-2-yl-azetidin-1-yl)-pyrazin-2-yl]-piperidin-4-yl}-methanol]", "IC50": 358}
    ]},
    {"biological_target": "T1, PDE10", "assay": "PDE10 enzyme inhibition, IMAP TR-FRET assay (Example A: MPDE10A7 Enzyme Activity and Inhibition)", "type": "biochemical", "settings": "read-out: IC50", "experimental": "as §1", "units": {"IC50": "nM"}, "values": [
      {"smiles": "CNC(=O)c1nccnc1N1CC(c2nc3cc(Cl)ccc3[nH]2)C1", "note": "[Example 4, 3-[3-(5-CHLORO-1H-BENZOIMIDAZOL-2-YL)-AZETIDIN-1-YL]-PYRAZINE-2-CARBOXYLIC ACID METHYLAMIDE]", "IC50": 3880},
      {"smiles": "N#Cc1ccc2[nH]c(C3CCN(c4nccnc4-c4ccccc4)CC3)nc2c1", "note": "[Example 1A, 2-[1-(3-PHENYL-PYRAZIN-2-YL)-PIPERIDIN-4-YL]-1H-BENZOIMIDAZOLE-5-CARBONITRILE]", "IC50": 272},
      {"smiles": "O=C(c1cccnc1N1CC(c2nc3cc(Cl)ccc3[nH]2)C1)N1CC(O)C1", "note": "[Example 3, {2-[3-(5-CHLORO-1H-BENZOIMIDAZOL-2-YL)-AZETIDIN-1-YL]-PYRIDIN-3-YL}-(3-HYDROXY-AZETIDIN-1-YL)-METHANONE]", "IC50": 549},
      {"smiles": "c1ccc2nc(C3CN(c4nccnc4N4CCCCC4)C3)ccc2c1", "note": "[Example 57]", "IC50": 689},
      {"smiles": "Clc1ccc2[nH]c(C3CN(c4nccnc4C4CCOCC4)C3)nc2c1", "note": "[Example 8, 5-CHLORO-2-(1-(3-(TETRAHYDRO-2H-PYRAN-4-YL)PYRAZIN-2-YL)AZETIDIN-3-YL)-1H-BENZO[D]IMIDAZOLE]", "IC50": 1160},
      {"smiles": "Cc1ccc2[nH]c(C3CN(c4nccnc4OC4CCOCC4)C3)nc2c1", "note": "[Example 1C, 5-METHYL-2-(1-(3-(TETRAHYDRO-2H-PYRAN-4-YLOXY)PYRAZIN-2-YL)AZETIDIN-3-YL)-1H-BENZO[D]IMIDAZOLE]", "IC50": 239}
    ]}
  ]
}
